# Key:
# MDA-MB-468 = assay: Antiproliferative activity against human MDA-MB-468 cells assessed as reduction in cell viability after 72 hrs by MTT assay; type: functional, cell-based; details: MDA-MB-468, 72 h
# MDA-MB-231 = assay: Antiproliferative activity against human MDA-MB-231 cells assessed as reduction in cell viability after 72 hrs by MTT assay; type: functional, cell-based; details: MDA-MB-231, 72 h
# T47D = assay: Antiproliferative activity against human T47D cells assessed as reduction in cell viability after 72 hrs by MTT assay; type: functional, cell-based
# HCT-15 = assay: Antiproliferative activity against human HCT15 cells assessed as reduction in cell viability after 72 hrs by MTT assay; type: functional, cell-based; details: HCT-15, 72 h
# HT-29 = assay: Antiproliferative activity against human HT-29 cells assessed as reduction in cell viability after 72 hrs by MTT assay; type: functional, cell-based; details: HT-29, 72 h
# HeLa = assay: Antiproliferative activity against human HeLa cells assessed as reduction in cell viability after 72 hrs by MTT assay; type: functional, cell-based
# HUVEC = assay: Cytotoxicity against HUVEC assessed as reduction in cell viability after 72 hrs by MTT assay; type: cell-based; details: Homo sapiens
smiles,measurement,setting,value
CCn1ccnc1-c1cc(OC)c(OC)c(OC)c1,IC50,MDA-MB-468,> 100 µM
same,IC50,MDA-MB-231,> 100 µM
same,IC50,T47D,> 100 µM
same,IC50,HCT-15,> 100 µM
same,IC50,HT-29,> 100 µM
same,IC50,HeLa,> 100 µM
COc1cc(-c2nccn2-c2cccc(C)c2)cc(OC)c1OC,IC50,MDA-MB-468,22.6 µM
same,IC50,MDA-MB-231,11.7 µM
same,IC50,T47D,29.3 µM
same,IC50,HCT-15,1.6 µM
same,IC50,HT-29,14.6 µM
same,IC50,HeLa,1.9 µM
same,IC50,HUVEC,> 100 µM
COc1ccc(-n2ccnc2-c2cc(OC)c(OC)c(OC)c2)cc1[N+](=O)[O-],IC50,MDA-MB-468,0.1 µM
same,IC50,MDA-MB-231,7.5 µM
same,IC50,T47D,10 µM
same,IC50,HCT-15,1 µM
same,IC50,HT-29,0.6 µM
same,IC50,HeLa,2.5 µM
COc1cc(-c2nccn2-c2ccc3[nH]ccc3c2)cc(OC)c1OC,IC50,MDA-MB-468,2.3 µM
same,IC50,MDA-MB-231,4.3 µM
same,IC50,T47D,2.1 µM
same,IC50,HCT-15,4.6 µM
same,IC50,HT-29,9.1 µM
same,IC50,HeLa,4.4 µM
same,IC50,HUVEC,46.7 µM
COc1cc(-c2nccn2S(=O)(=O)c2ccccc2)cc(OC)c1OC,IC50,MDA-MB-468,> 100 µM
same,IC50,MDA-MB-231,> 100 µM
same,IC50,T47D,> 100 µM
same,IC50,HCT-15,> 100 µM
same,IC50,HT-29,> 100 µM
same,IC50,HeLa,> 100 µM
COc1cc(-c2nccn2-c2ccc(Br)cc2)cc(OC)c1OC,IC50,MDA-MB-468,2.7 µM
same,IC50,MDA-MB-231,8.4 µM
same,IC50,T47D,24.6 µM
same,IC50,HCT-15,11.7 µM
same,IC50,HT-29,7.7 µM
same,IC50,HeLa,3.3 µM
same,IC50,HUVEC,> 100 µM
CCCn1ccnc1-c1cc(OC)c(OC)c(OC)c1,IC50,MDA-MB-468,> 100 µM
same,IC50,MDA-MB-231,> 100 µM
same,IC50,T47D,> 100 µM
same,IC50,HCT-15,> 100 µM
same,IC50,HT-29,> 100 µM
same,IC50,HeLa,> 100 µM
CCCCn1ccnc1-c1cc(OC)c(OC)c(OC)c1,IC50,MDA-MB-468,44.1 µM
same,IC50,MDA-MB-231,70.4 µM
same,IC50,T47D,> 100 µM
same,IC50,HCT-15,> 100 µM
same,IC50,HT-29,> 100 µM
same,IC50,HeLa,> 100 µM
COc1cc(-c2nccn2-c2ccc(F)cc2)cc(OC)c1OC,IC50,MDA-MB-468,62.2 µM
same,IC50,MDA-MB-231,38.4 µM
same,IC50,T47D,> 100 µM
same,IC50,HCT-15,68.6 µM
same,IC50,HT-29,29.3 µM
same,IC50,HeLa,17.5 µM
COc1ccc(OC(=O)c2cc(OC)c(OC)c(OC)c2)cc1N,IC50,MDA-MB-468,> 100 µM
same,IC50,MDA-MB-231,> 100 µM
same,IC50,T47D,> 100 µM
same,IC50,HCT-15,> 100 µM
same,IC50,HT-29,> 100 µM
same,IC50,HeLa,> 100 µM
COc1cc(-c2nccn2C)cc(OC)c1OC,IC50,MDA-MB-468,> 100 µM
same,IC50,MDA-MB-231,> 100 µM
same,IC50,T47D,> 100 µM
same,IC50,HCT-15,> 100 µM
same,IC50,HT-29,> 100 µM
same,IC50,HeLa,> 100 µM
COc1ccc(-n2ccnc2-c2cc(OC)c(OC)c(OC)c2)cc1,IC50,MDA-MB-468,0.5 µM
same,IC50,MDA-MB-231,2.7 µM
same,IC50,T47D,1.4 µM
same,IC50,HCT-15,1.3 µM
same,IC50,HT-29,13.1 µM
same,IC50,HeLa,1.2 µM
same,IC50,HUVEC,> 50 µM
COc1cccc(-n2ccnc2-c2cc(OC)c(OC)c(OC)c2)c1,IC50,MDA-MB-468,10.4 µM
same,IC50,MDA-MB-231,18.3 µM
same,IC50,T47D,32.2 µM
same,IC50,HCT-15,17.1 µM
same,IC50,HT-29,18.9 µM
same,IC50,HeLa,11 µM
COc1ccc(NC(=O)c2cc(OC)c(OC)c(OC)c2)cc1[N+](=O)[O-],IC50,MDA-MB-468,2.9 µM
same,IC50,MDA-MB-231,31 µM
same,IC50,T47D,34.5 µM
same,IC50,HCT-15,17.6 µM
same,IC50,HT-29,9.7 µM
same,IC50,HeLa,38.7 µM
COc1cc(-c2nccn2C(C)C)cc(OC)c1OC,IC50,MDA-MB-468,> 100 µM
same,IC50,MDA-MB-231,> 100 µM
same,IC50,T47D,> 100 µM
same,IC50,HCT-15,> 100 µM
same,IC50,HT-29,> 100 µM
same,IC50,HeLa,> 100 µM
COc1cc(-c2nccn2-c2ccc3sccc3c2)cc(OC)c1OC,IC50,MDA-MB-468,0.4 µM
same,IC50,MDA-MB-231,16.8 µM
same,IC50,T47D,17 µM
same,IC50,HCT-15,3.3 µM
same,IC50,HT-29,1.5 µM
same,IC50,HeLa,1.4 µM
COc1ccc(OC(=O)c2cc(OC)c(OC)c(OC)c2)cc1[N+](=O)[O-],IC50,MDA-MB-468,> 100 µM
same,IC50,MDA-MB-231,> 100 µM
same,IC50,T47D,> 100 µM
same,IC50,HCT-15,> 100 µM
same,IC50,HT-29,> 100 µM
same,IC50,HeLa,> 100 µM
COc1ccc(NC(=O)c2cc(OC)c(OC)c(OC)c2)cc1N,IC50,MDA-MB-468,2 µM
same,IC50,MDA-MB-231,18.6 µM
same,IC50,T47D,50.4 µM
same,IC50,HCT-15,6.5 µM
same,IC50,HT-29,1.2 µM
same,IC50,HeLa,4.1 µM
COc1cc(-c2nccn2-c2ccc3cc[nH]c3c2)cc(OC)c1OC,IC50,MDA-MB-468,1.7 µM
same,IC50,MDA-MB-231,7.5 µM
same,IC50,T47D,18 µM
same,IC50,HCT-15,4 µM
same,IC50,HT-29,3.6 µM
same,IC50,HeLa,4.8 µM
same,IC50,HUVEC,40 µM
COc1cc(OC)cc(-n2ccnc2-c2cc(OC)c(OC)c(OC)c2)c1,IC50,MDA-MB-468,57.5 µM
same,IC50,MDA-MB-231,45.2 µM
same,IC50,T47D,> 100 µM
same,IC50,HCT-15,> 100 µM
same,IC50,HT-29,74.5 µM
same,IC50,HeLa,41.4 µM
COc1cc(-c2nccn2S(=O)(=O)c2ccc(C)cc2)cc(OC)c1OC,IC50,MDA-MB-468,> 100 µM
same,IC50,MDA-MB-231,> 100 µM
same,IC50,T47D,> 100 µM
same,IC50,HCT-15,> 100 µM
same,IC50,HT-29,> 100 µM
same,IC50,HeLa,> 100 µM
COc1cc(-c2nccn2Cc2ccccc2)cc(OC)c1OC,IC50,MDA-MB-468,> 100 µM
same,IC50,MDA-MB-231,> 100 µM
same,IC50,T47D,> 100 µM
same,IC50,HCT-15,> 100 µM
same,IC50,HT-29,> 100 µM
same,IC50,HeLa,> 100 µM
COc1cc(-c2nccn2-c2cccc3ccccc23)cc(OC)c1OC,IC50,MDA-MB-468,6.2 µM
same,IC50,MDA-MB-231,8 µM
same,IC50,T47D,15 µM
same,IC50,HCT-15,25.4 µM
same,IC50,HT-29,14.7 µM
same,IC50,HeLa,31 µM
COc1cc(-c2nccn2-c2ccc(C)cc2)cc(OC)c1OC,IC50,MDA-MB-468,0.4 µM
same,IC50,MDA-MB-231,4.1 µM
same,IC50,T47D,20.5 µM
same,IC50,HCT-15,0.8 µM
same,IC50,HT-29,1.6 µM
same,IC50,HeLa,0.7 µM
same,IC50,HUVEC,> 100 µM
COc1cc(-c2nccn2CC(C)C)cc(OC)c1OC,IC50,MDA-MB-468,> 100 µM
same,IC50,MDA-MB-231,> 100 µM
same,IC50,T47D,> 100 µM
same,IC50,HCT-15,> 100 µM
same,IC50,HT-29,> 100 µM
same,IC50,HeLa,> 100 µM
COc1cc(-c2nccn2-c2cccc([N+](=O)[O-])c2)cc(OC)c1OC,IC50,MDA-MB-468,7.2 µM
same,IC50,MDA-MB-231,> 100 µM
same,IC50,T47D,17.9 µM
same,IC50,HCT-15,> 100 µM
same,IC50,HT-29,> 100 µM
same,IC50,HeLa,6.7 µM
same,IC50,HUVEC,> 100 µM
COc1ccc(-n2ccnc2-c2cc(OC)c(OC)c(OC)c2)cc1O,IC50,MDA-MB-468,0.3 µM
same,IC50,MDA-MB-231,1.9 µM
same,IC50,T47D,53.1 µM
same,IC50,HCT-15,0.2 µM
same,IC50,HT-29,16.9 µM
same,IC50,HeLa,0.1 µM
same,IC50,HUVEC,54.2 µM
COc1ccc(C(=O)Nc2cc(OC)c(OC)c(OC)c2)cc1[N+](=O)[O-],IC50,MDA-MB-468,3 µM
same,IC50,MDA-MB-231,5.7 µM
same,IC50,T47D,6 µM
same,IC50,HCT-15,2 µM
same,IC50,HT-29,8.3 µM
same,IC50,HeLa,3.7 µM
COc1ccc(C(=O)Oc2cc(OC)c(OC)c(OC)c2)cc1[N+](=O)[O-],IC50,MDA-MB-468,35.2 µM
same,IC50,MDA-MB-231,> 100 µM
same,IC50,T47D,29.6 µM
same,IC50,HCT-15,> 100 µM
same,IC50,HT-29,> 100 µM
same,IC50,HeLa,> 100 µM
COc1ccc(C(=O)Nc2cc(OC)c(OC)c(OC)c2)cc1N,IC50,MDA-MB-468,> 100 µM
same,IC50,MDA-MB-231,94.2 µM
same,IC50,T47D,> 100 µM
same,IC50,HCT-15,> 100 µM
same,IC50,HT-29,> 100 µM
same,IC50,HeLa,> 100 µM
COc1ccc(C(=O)Oc2cc(OC)c(OC)c(OC)c2)cc1N,IC50,MDA-MB-468,> 100 µM
same,IC50,MDA-MB-231,> 100 µM
same,IC50,T47D,> 100 µM
same,IC50,HCT-15,> 100 µM
same,IC50,HT-29,> 100 µM
same,IC50,HeLa,> 100 µM
CCCCCn1ccnc1-c1cc(OC)c(OC)c(OC)c1,IC50,MDA-MB-468,57.9 µM
same,IC50,MDA-MB-231,34.2 µM
same,IC50,T47D,64.4 µM
same,IC50,HCT-15,> 100 µM
same,IC50,HT-29,60.1 µM
same,IC50,HeLa,> 100 µM

# — ChEMBL document CHEMBL4311991, “Design, synthesis, and biological evaluation of 1-substituted -2-aryl imidazoles targeting tubulin polymerization as potential anticancer agents” (Eur J Med Chem, 2019)
